The source of these data is patent US20140228377A1, “METHYLPIPERIDINE DERIVATIVE” (TAISHO PHARMACEUTICAL CO., LTD., priority 2011, published 2014).

Molecules are shown by their SMILES. pIC50: −log10 of the molar value. Where two headings read alike, the source gives them in different places.

Assay [1] concerns the target T1, human orexin-1 receptor (hOX1R) (Homo sapiens, UniProt O43613).
T1 construct: expressed in transfected cells; host or cells: Chinese hamster ovary (CHO) cells
T1 sequence (O43613 1-425): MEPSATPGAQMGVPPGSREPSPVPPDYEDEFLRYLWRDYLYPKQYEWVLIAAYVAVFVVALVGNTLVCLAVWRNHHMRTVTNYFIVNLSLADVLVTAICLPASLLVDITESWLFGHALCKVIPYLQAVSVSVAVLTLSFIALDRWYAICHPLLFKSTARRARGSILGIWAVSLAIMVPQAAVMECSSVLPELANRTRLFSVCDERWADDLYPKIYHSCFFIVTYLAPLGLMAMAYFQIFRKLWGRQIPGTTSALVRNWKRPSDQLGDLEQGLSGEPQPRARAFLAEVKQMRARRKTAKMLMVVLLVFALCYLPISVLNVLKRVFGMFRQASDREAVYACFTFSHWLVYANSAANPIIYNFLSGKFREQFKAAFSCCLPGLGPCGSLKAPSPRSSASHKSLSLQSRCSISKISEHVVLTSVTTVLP
In words: Orexin antagonistic activity assay (intracellular Ca2+, FDSS) in CHO cells expressing hOX1R. The format is cell-based. The procedure:
(§1) The antagonistic activity of each test compound against human orexin-1 receptor (hOX1R) and orexin-2 receptor (hOX2R) was assayed by a modification of a method described in the literature (Toshikatsu Okumura et al., Biochemical and Biophysical Research Communications 280, 976-981, 2001). Chinese hamster ovary (CHO) cells forced to express hOX1R or hOX2R were inoculated at a density of 20,000 cells/well to a 96-well Black clear bottom plate (Nunc) and cultured at 37° C. for 16 hours under 5% CO2 conditions in a Ham's F-12 medium containing 0.1 mM MEM nonessential amino acids, 0.5 mg/ml G418, and 10% fetal bovine serum (all from Invitrogen Corp.). After removal of the medium, 100 μL of a buffer solution for assay (25 mM HEPES (Dojindo Laboratories), Hanks' balanced salt solution (Invitrogen Corp.), 0.1% bovine serum albumin, 2.5 mM probenecid, and 200 μg/ml Amaranth (all from Sigma-Aldrich Corp.), pH 7.4) containing 0.5 μM Fluo-3 AM ester (Dojindo Laboratories) was added to the cells, which were then incubated at 37° C. for 60 minutes under 5% CO2 conditions. After removal of the buffer solution for assay containing Fluo-3 AM ester, each test compound was dissolved at a concentration of 10 mM in dimethyl sulfoxide and diluted with a buffer solution for assay. Then, 150 μL of the solution was added to the cells, which were then incubated for 30 minutes.
(§2) A ligand peptide (Pyr-[…]NH2; Peptide Institute, Inc.) derived from human orexin-A by the substitution of two amino acids was diluted with a buffer solution for assay to final concentrations of 300 pM for hOX1R and 3 nM for hOX2R. Reaction was initiated by the addition of 50 μL of this ligand solution. The fluorescence intensity of the reaction was measured in each well every second for 3 minutes using Functional Drug Screening System (FDSS; manufactured by Hamamatsu Photonics K.K.), and the maximum fluorescence intensity was used as an index for intracellular Ca^2+ concentration to determine antagonistic activity. The antagonistic activity of the test compound was calculated with fluorescence intensity from a well supplemented with only a diluting buffer solution as 100% and fluorescence intensity from a well supplemented with a buffer solution free from the ligand and the compound as 0%. The 50% inhibitory concentration (IC50 value) was determined on the basis of fluorescence intensity derived from the test compound added at varying concentrations.

Assay [2] addresses T2, orexin-2 receptor (hOX2R) (Homo sapiens, UniProt O43614).
T2 construct: expressed in transfected cells; host or cells: Chinese hamster ovary (CHO) cells
T2 sequence (O43614 1-444): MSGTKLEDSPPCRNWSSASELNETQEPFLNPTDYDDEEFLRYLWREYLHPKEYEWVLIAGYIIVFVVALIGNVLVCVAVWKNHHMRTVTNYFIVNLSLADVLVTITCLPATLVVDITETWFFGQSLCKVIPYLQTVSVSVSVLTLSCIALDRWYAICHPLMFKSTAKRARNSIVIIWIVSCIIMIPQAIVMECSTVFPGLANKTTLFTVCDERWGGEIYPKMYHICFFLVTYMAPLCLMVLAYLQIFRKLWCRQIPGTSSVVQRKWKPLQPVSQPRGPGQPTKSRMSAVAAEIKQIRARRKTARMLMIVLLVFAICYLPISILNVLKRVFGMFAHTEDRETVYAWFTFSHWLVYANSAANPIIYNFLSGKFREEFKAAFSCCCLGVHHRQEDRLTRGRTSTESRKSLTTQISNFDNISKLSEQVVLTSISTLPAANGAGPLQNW
The assay can be described thus: Orexin antagonistic activity assay (intracellular Ca2+, FDSS) in CHO cells expressing hOX2R. The format is cell-based. As to the method: as §1, §2

The mark [3] stands for this setting: CHO cells expressing hOX1R, ligand peptide 300 pM, Fluo-3 maximum fluorescence intensity, read-out: IC50 value OX1.
The mark [4] stands for this setting: CHO cells expressing hOX2R, ligand peptide 3 nM, Fluo-3 maximum fluorescence intensity, read-out: IC50 value OX2.

In general, pIC50 refers to −log10 of the IC50, conventionally taken in molar units. On to `COc1ccc(-n2nccn2)c(C(=O)N2C[C@H](c3nc4cc(Cl)ccc4o3)CC[C@H]2C)c1` [Example 25, [(2R,5R)-5-(5-Chloro-1,3-benzoxazol-2-yl)-2-methylpiperidin-1-yl][5-methoxy-2-(2H-1,2,3-triazol-2-yl)phenyl]methanone], for which the pIC50 in assay [1] (setting [3]) was 6.41; in assay [2] (setting [4]), 7.18.

On to `Cc1ccc(-n2nccn2)c(C(=O)N2C[C@H](c3nc4cc(Cl)ccc4o3)CC[C@H]2C)c1` (single isomer, unassigned) [Example 9, [(2R*,5R*)-5-(5-Chloro-1,3-benzoxazol-2-yl)-2-methylpiperidin-1-yl][5-methyl-2-(2H-1,2,3-triazol-2-yl)phenyl]methanone], for which the pIC50 is 8.92 in assay [1] and 8.74 in assay [2].

Take `Cc1ccc(-n2nccn2)c(C(=O)N2C[C@H](c3nc4ccc(Cl)cc4o3)CC[C@H]2C)n1` [Example 46, [(2R,5R)-5-(6-Chloro-1,3-benzoxazol-2-yl)-2-methylpiperidin-1-yl][6-methyl-3-(2H-1,2,3-triazol-2-yl)pyridin-2-yl]methanone]: the negative-log IC50 (pIC50) in assay [1] (setting [3]) was 8.00; in assay [2] (setting [4]) it was 7.15.

Consider `Cc1ccc(-c2ncccn2)c(C(=O)N2C[C@H](c3nc4cc(F)ccc4o3)CC[C@H]2C)c1` (single isomer, unassigned) [Example 8, [(2R*,5R*)-5-(5-Fluoro-1,3-benzoxazol-2-yl)-2-methylpiperidin-1-yl][5-methyl-2-(pyrimidin-2-yl)phenyl]methanone], for which the negative-log IC50 (pIC50) in assay [1] (setting [3]) is 9.15; in assay [2] (setting [4]) it was 8.68.

Turning to `C[C@@H]1CC[C@@H](c2nc3cc(Cl)ccc3o2)CN1C(=O)c1c(F)cccc1-n1nccn1` [Example 16, [(2R5R)-5-(5-Chloro-1,3-benzoxazol-2-yl)-2-methylpiperidin-1-yl][2-fluoro-6-(2H-1,2,3-triazol-2-yl)phenyl]methanone], the results for the pIC50 in assay [1] (setting [3]) and in assay [2] (setting [4]) were 7.59 and 8.44, respectively.

For `C[C@@H]1CC[C@@H](c2nc3cc(F)ccc3o2)CN1C(=O)c1ccccc1-c1ncccn1` [Example 31, [(2R,5R)-5-(5-Fluoro-1,3-benzoxazol-2-yl)-2-methylpiperidin-1-yl][2-(pyrimidin-2-yl)phenyl]methanone], the pIC50 was 7.17 in assay [1] (setting [3]) and 7.53 in assay [2] (setting [4]).

In the case of `C[C@@H]1CC[C@@H](c2nc3cc(F)ccc3o2)CN1C(=O)c1cc(F)ccc1-n1nccn1` [Example 29, [(2R,5R)-5-(5-Fluoro-1,3-benzoxazol-2-yl)-2-methylpiperidin-1-yl][5-fluoro-2-(2H-1,2,3-triazol-2-yl)phenyl]methanone], the figures for the negative-log IC50 (pIC50) in assay [1] (setting [3]) and in assay [2] (setting [4]) were 6.96 and 8.22, respectively.

As for `Cc1ccc(-n2nccn2)c(C(=O)N2C[C@H](c3nc4c(Cl)cccc4o3)CC[C@H]2C)c1` [Example 68, [(2R,5R)-5-(4-Chloro-1,3-benzoxazol-2-yl)-2-methylpiperidin-1-yl][5-methyl-2-(2H-1,2,3-triazol-2-yl)phenyl]methanone], the pIC50 in assay [1] (setting [3]) is 8.15; in assay [2] (setting [4]), 8.34.

Consider `C[C@@H]1CC[C@@H](c2nc3cc(F)c(F)cc3o2)CN1C(=O)c1cc(F)ccc1-c1ncccn1` [Example 52, [(2R,5R)-5-(5,6-Difluoro-1,3-benzoxazol-2-yl)-2-methylpiperidin-1-yl][5-fluoro-2-(pyrimidin-2-yl)phenyl]methanone], for which the negative logarithm of the IC50 (pIC50) in assay [1] (setting [3]) is 7.08; in assay [2] (setting [4]), 7.96.

For the compound `C[C@@H]1CC[C@@H](c2nc3cc(Cl)ccc3o2)CN1C(=O)c1c(F)cccc1-c1ncccn1` [Example 19, [(2R,5R)-5-(5-Chloro-1,3-benzoxazol-2-yl)-2-methylpiperidin-1-yl][2-fluoro-6-(pyrimidin-2-yl)phenyl]methanone], the results for the negative logarithm of the IC50 (pIC50) in assay [1] (setting [3]) and in assay [2] (setting [4]) were 7.08 and 8.03, respectively.

Consider `Cc1ccc(-n2nccn2)c(C(=O)N2C[C@H](c3nc4ccc(Cl)cc4o3)CC[C@H]2C)c1` [Example 43, [(2R,5R)-5-(6-Chloro-1,3-benzoxazol-2-yl)-2-methylpiperidin-1-yl][5-methyl-2-(2H-1,2,3-triazol-2-yl)phenyl]methanone], for which the figures for the pIC50 in assay [1] (setting [3]) and in assay [2] (setting [4]) were 8.39 and 8.01, respectively.

In the case of `C[C@@H]1CC[C@@H](c2nc3cc(Cl)ccc3o2)CN1C(=O)c1ccc(F)cc1-c1ncccn1` [Example 17, [(2R,5R)-5-(5-Chloro-1,3-benzoxazol-2-yl)-2-methylpiperidin-1-yl][4-fluoro-2-(pyrimidin-2-yl)phenyl]methanone], the values for the negative logarithm of the IC50 (pIC50) in assay [1] (setting [3]) and in assay [2] (setting [4]) were 7.26 and 7.99, respectively.

Take `C[C@@H]1CC[C@@H](c2nc3ccc(F)cc3o2)CN1C(=O)c1cc(Cl)ccc1-c1ncccn1` [Example 49, [5-Chloro-2-(pyrimidin-2-yl)phenyl][(2R,5R)-5-(6-fluoro-1,3-benzoxazol-2-yl)-2-methylpiperidin-1-yl]methanone]: the pIC50 is 6.99 in assay [1] (setting [3]) and 7.03 in assay [2] (setting [4]).

On to `Cc1ccc(-n2nccn2)c(C(=O)N2C[C@H](c3nc4cc(F)c(F)cc4o3)CC[C@H]2C)n1` [Example 54, [(2R,5R)-5-(5,6-Difluoro-1,3-benzoxazol-2-yl)-2-methylpiperidin-1-yl][6-methyl-3-(2H-1,2,3-triazol-2-yl)pyridin-2-yl]methanone], for which the values for the pIC50 in assay [1] (setting [3]) and in assay [2] (setting [4]) were 7.01 and 7.28, respectively.

With `Cc1ccc(C(=O)N2C[C@H](c3nc4cc(Cl)ccc4o3)CC[C@H]2C)c(-n2nccn2)c1` [Example 26, [(2R,5R)-5-(5-Chloro-1,3-benzoxazol-2-yl)-2-methylpiperidin-1-yl][4-methyl-2-(2H-1,2,3-triazol-2-yl)phenyl]methanone], the results for the negative logarithm of the IC50 (pIC50) in assay [1] (setting [3]) and in assay [2] (setting [4]) were 7.96 and 8.08, respectively.

For `C[C@@H]1CC[C@@H](c2nc3cc(F)ccc3o2)CN1C(=O)c1ccc(F)cc1-n1nccn1` [Example 34, [(2R,5R)-5-(5-Fluoro-1,3-benzoxazol-2-yl)-2-methylpiperidin-1-yl][4-fluoro-2-(2H-1,2,3-triazol-2-yl)phenyl]methanone], the figures for the negative-log IC50 (pIC50) in assay [1] (setting [3]) and in assay [2] (setting [4]) were 6.67 and 8.08, respectively.

In the case of `C[C@@H]1CC[C@@H](c2nc3cc(C(F)(F)F)ccc3o2)CN1C(=O)c1cc(F)ccc1-c1ncccn1` [Example 38, [5-Fluoro-2-(pyrimidin-2-yl)phenyl]{(2R,5R)-2-methyl-5-[5-(trifluoromethyl)-1,3-benzoxazol-2-yl]piperidin-1-yl}methanone], the results for the negative-log IC50 (pIC50) in assay [1] (setting [3]) and in assay [2] (setting [4]) were 6.09 and 7.10, respectively.

For `Cc1ccc(-c2ncccn2)c(C(=O)N2C[C@H](c3nc4cc(OC(F)(F)F)ccc4o3)CC[C@H]2C)c1` [Example 41, [5-Methyl-2-(pyrimidin-2-yl)phenyl]{(2R,5R)-2-methyl-5-[5-(trifluoromethoxy)-1,3-benzoxazol-2-yl]piperidin-1-yl}methanone], the pIC50 in assay [1] (setting [3]) is 6.75; in assay [2] (setting [4]), 7.35.

As for `C[C@@H]1CC[C@@H](c2nc3cc(Cl)ccc3o2)CN1C(=O)c1ccccc1-n1nccn1` (single isomer, unassigned) [Example 3, [(2R*,5R*)-5-(5-Chloro-1,3-benzoxazol-2-yl)-2-methylpiperidin-1-yl][2-(2H-1,2,3-triazol-2-yl)phenyl]methanone], the figures for the pIC50 in assay [1] (setting [3]) and in assay [2] (setting [4]) were 7.74 and 8.39, respectively.
